Test results from article PMC6160541 (Frontiers in Chemistry, 2018).

Experiments:
HeLa = assay: MTT cytotoxicity assay, HeLa; assay type: cell-based, human; conditions: 48 h
Protocol: (§1) We evaluated the cytotoxicity of 1c-6c, 1d-7d and of the positive control 1a-5a against a panel of human cancer cells using MTT (3-(4,5-dimethylthiazol-2-yl)-2,5-diphenyltetrazolium bromide) assay. The IC50 values were calculated based on three parallel experiments.
(§2) Cisplatin and oxaliplatin were purchased from Yurui Chemical Co. Ltd. (Shanghai, China). All of the other chemicals were obtained from commercial suppliers, such as Alfa […]
(§3) IonSpec QFT mass spectrometer with ESI ionization. 3-(4,5-dimethylthiazol-2-yl) […]
(§4) Phosphate-buffered saline (PBS) contains 137 mM
(§5) NaCl, 2.7 mM KCl, 10 mM Na2HPO4 and 2 mM KH2PO4. Fetal bovine serum (FBS), 0.25% trypsin/EDTA solution, and penicillin-streptomycin solution were purchased from […]
(§6) Invitrogen (Grand Island, NY, USA). […]
(§7) HeLa (cervical carcinoma cell line), MCF-7 (breast gland adenocarcinoma), LNCaP and PC3 (prostatic cancer), HepG-2 (hepatocellular carcinoma), A549 and A549R (lung carcinoma) were used for the MTT […]
(§8) In Vitro Cellular Cytotoxicity Assays
(§9) Cells seeded in 96-well plates were incubated in a 5% CO2 atmosphere in 100 µL of complete medium at 37 ℃ for 24 h. Then, 100 µL of freshly prepared culture medium containing drugs at different concentrations was added and incubated for another 48 h.
(§10) MTT (5 mg/mL, 20 µL) was added and incubated for 3 h. Finally, the medium was removed, and DMSO (150 µL) was added. The absorbance was measured at 570 nm using a Bio-Rad 680 microplate reader. The IC50 values were calculated using GraphPad […]
(§11) Prism software. […]

MCF-7 = assay: MTT cytotoxicity assay, MCF-7; assay type: cell-based, human; conditions: 48 h
Protocol: as §1, §2, §3, §4, §5, §6, §7, §8, §9, §10, §11

LNCaP = assay: MTT cytotoxicity assay, LNCaP; assay type: cell-based, human; conditions: 48 h
Protocol: as §1, §2, §3, §4, §5, §6, §7, §8, §9, §10, §11

PC3 = assay: MTT cytotoxicity assay, PC3; assay type: cell-based, human; conditions: 48 h
Protocol: as §1, §2, §3, §4, §5, §6, §7, §8, §9, §10, §11

HepG-2 = assay: MTT cytotoxicity assay, HepG-2; assay type: cell-based, human; conditions: 48 h
Protocol: as §1, §2, §3, §4, §5, §6, §7, §8, §9, §10, §11

A549 = assay: MTT cytotoxicity assay, A549; assay type: cell-based, human; conditions: 48 h
Protocol: as §1, §2, §3, §4, §5, §6, §7, §8, §9, §10, §11

A549R = assay: MTT cytotoxicity assay, A549R (cisplatin-resistant); assay type: cell-based, human
Protocol: as §1, §2, §3, §4, §5, §6, §7, §8, §9, §10, §11

MDCK cells = assay: MTT cytotoxicity with EDG, phloretin, Ctd. in MDCK cells; assay type: cell-based, canine; conditions: vs IC50 at 48 h
From the text: Finally, Madin-Darby canine kidney (MDCK) cells, which are widely used to establish the model of the intestinal epithelium and to evaluate the oral administration and screening of substrates and inhibitors in vitro, were used to find a prodrug with the enhanced potential for oral administration. […] (Figure 10).

[1] = parameters: method as in printed; conditions: comparison values, ref not given; cited from earlier work

Q: For `CC(=O)[O][Pt]([NH2])([Cl])([Cl])([NH]C1CCCCC1)[O]C(C)=O` [5a, satraplatin, reference compound], which IC50 (HeLa) is on record?
A: 3.1 ± 0.89 µM

Q: And the IC50 (MCF-7)?
A: 8.01 ± 0.56 µM

Q: What about the IC50 (LNCaP) of the same compound?
A: 5.23 ± 1.77 µM

Q: And the IC50 (PC3)?
A: 16.8 ± 1.56 µM

Q: What about the IC50 (HepG-2) of the same compound?
A: 6.7 ± 1.89 µM

Q: And the IC50 (A549)?
A: 2.17 ± 1.68 µM

Q: What about the “RF: Resistance factor = IC50(A549R)/IC50(A549)” value (A549R) of the same compound?
A: 4.59

Q: And the IC50 (A549R; MTT, 48 h)?
A: 9.96 ± 0.57 µM

Q: What about the “effect of EDG, phloretin, Ctd. and EDG + Ctd. on IC50” value (MDCK cells) of the same compound?
A: no great differences

Q: What about the “t1/2 in whole human blood” value [1] of the same compound?
A: 6.3 min
